Test results from PMC7012012, “Bioassay-guided isolation, identification of compounds from Origanum rotundifolium and investigation of their antiproliferative and antioxidant activities” (Pharmaceutical Biology, 2017).
Where “and” joins values, the source holds several entries; their conditions need not be identical. Identical values can stand only once.

How the values were obtained:
[1] = DPPH free radical scavenging assay; conditions: 30 min, absorbance 517 nm
Method: The free radical scavenging activities of extracts and standards were evaluated by 2,2-diphenyl-1-picrylhydrazil (DPPH^•) (Blois [1958]). To a different concentration of 3.0 mL of extract (3.0–20 μg/mL) in ethanol, DPPH^• solution (1.0 mL, 0.26 mM) were added. After that it is stirred and kept at Rt for 30 min, The absorbance of the mixture was executed at 517 nm in a spectrophotometer. The activity was calculated by the below equation. DPPH• scavenging effect %=Ac-As/Ac×100
In which, Ac and As are the control and sample absorbance, respectively.

[2] = ABTS radical cation scavenging assay; conditions: 30 min, absorbance 734 nm; unit printed only in abstract
Method: 2,2″-Azino-bis (3-ethylbenzthiazoline-6-sulfonic acid) (ABTS) cation radical scavenging assay based on the decreasing ABTS radical cation, a blue/green chromophore with absorption at […], in comparison to that of BHA, BHT and Trolox. This method was executed as in the literature (Re et al. [1999]). Treatment of ABTS (2.0 mM) in phosphate buffer (0.1 M, pH 7.4) with potassium persulfate (K2S2O8) (2.45 mM) gave the ABTS^•+, kept at dark at Rt for 4 h. Initially, dilution of ABTS^•+ was performed with sodium phosphate buffer (pH 7.4, 0.1 M) to obtain absorbance 0.750 ± 0.025 at 734 nm. After all, ABTS^•+ solution (1.0 mL) was added to each extract solution in ethanol (3.0 mL) at different concentration (2.5–20 μg/mL). After 30 min, the inhibition was calculated for each concentration relative to a blank absorbance. The scavenging ability of ABTS^•+ was calculated by given equation:
ABTS^•+scavenging activity (%)=[(Ac – As)/Ac]*100 in which, Ac is the initial concentration of ABTS^•+ and As is the absorbance of the remaining concentration of ABTS^•+ in the samples.

[3] = Ferric ions (Fe3+) reducing antioxidant power assay (FRAP); conditions: 10 μg/mL
Method: Different concentrations of samples (5–40 μg/mL) in 1 mL of deionized water were mixed with sodium phosphate buffer (1.25 mL, 0.2 M, pH 6.6) and potassium ferricyanide [K3Fe(CN)6] (1.25 mL, 1%). After the incubation of the mixture at 50 °C for 20 min, trichloroacetic acid (1.25 mL, 10%) and FeCl3 (0.25 mL, 0.1%) were added to the reaction medium. The reaction mixture was vortexed thoroughly and absorbance measurement at 700 nm was executed in a spectrophotometer.

[4] = test system: HeLa (human cervix carcinoma) cell lines; experiment: BrdU cell proliferation ELISA, HeLa; type: cell-based; conditions: for Tumour specificity HeLa: HeLa relative to Vero; for IC50: BrdU ELISA
Method: (§1) Anticancer potential of isolated compounds was investigated on C6, HT29, HeLa and Vero cell lines. These cells were sustained with Dulbecco’s modified eagle’s medium, complemented with foetal bovine serum and PenStep solution (ATCC, American Type Culture Collection). The old medium was aspirated out of the plate while cells had reached a confluence of 80% then cells were removed from the flasks using trypsin-EDTA (4 mL) and centrifuged. Afterward, cell pellet was suspended with DMEM and was counted to gain a final concentration as 5 × 10^4 cells/mL, inoculated into wells (100 μL cells/well).
(§2) The antiproliferative activity of compounds against various cell lines (C6, HeLa and Vero cells) was tested by cell proliferation assay using BrdU Cell Proliferation ELISA kit. A cell suspension containing nearly 5 × 10^3 cells in 100 μL was conveyed into the well cell plates (96-well cell). The treatments of cells with compounds in DMSO and 5-Florouracil (5 FU) in DMSO separately at concentration 5–100 μg/mL were carried out. The last volume of the wells was adapted to 200 μL by DMEM and mixture was incubated at 37 °C with 5% CO2 for overnight (Okten et al. [2013]).
(§3) The half inhibitory concentration of the isolated compounds and standards was calculated by XLfit5 software (IDBS) and explicated in μM at 95% confidence levels (Table 1). The proliferation results were recorded as the per cent inhibition of the compounds and control substances. The following formula was used for the calculation of inhibition % Inhibition = [Asample– Acontrol/Acontrol]×100
(§4) where Asample is the absorbance of the compounds and Acontrol is the absorbance of the DMSO.

[5] = test system: Vero (African green monkey kidney epithelium) cells; experiment: BrdU cell proliferation ELISA, Vero; type: cell-based; conditions: for IC50: BrdU ELISA; for Antiproliferative activity on Vero (in words): 5-100 μg/mL
Method: as §1, §2, §3, §4

[6] = test system: C6 (rat brain tumour) cell lines; experiment: BrdU cell proliferation ELISA, C6; type: cell-based; conditions: for IC50: C6, BrdU ELISA; for Tumour specificity C6: C6 relative to Vero; for Antiproliferative activity on C6 (in words): C6, 5-100 μg/mL
Method: as §1, §2, §3, §4

[7] = test system: HT29 (human colon carcinoma) cell lines; experiment: BrdU cell proliferation ELISA, HT29; type: cell-based; conditions: for Tumour specificity HT29: HT29 relative to Vero
Method: as §1, §2, §3, §4

[8] = Homo sapiens, HT-29, HT29, BrdU ELISA

| Molecule | IC50 [1] [µM] | ABTS radical cation scavenging IC50 [2] | Reducing power (absorbance at 700 nm) [3] | Tumour specificity HeLa [4] | IC50 ([4]; HeLa) [µM] | IC50 [5] [µM] | IC50 [6] [µM] | IC50 ([6]; listed as cisplatin) [µM] | Tumour specificity C6 [6] | IC50 ([7]; HT29, BrdU ELISA) [µM] | Tumour specificity HT29 [7] | Antiproliferative activity on HeLa (in words) ([4]; HeLa, 5-100 μg/mL) | Antiproliferative activity on Vero (in words) [5] | Antiproliferative activity on C6 (in words) [6] | Antiproliferative activity on HT29 (in words) ([7]; HT29, 5-100 μg/mL) | IC50 ([4]; Homo sapiens, HeLa) [µM] | IC50 ([5]; Chlorocebus sabaeus) [µM] | IC50 ([6]; Rattus norvegicus) [µM] | IC50 [7, 8] [µM] |
| --- | --- | --- | --- | --- | --- | --- | --- | --- | --- | --- | --- | --- | --- | --- | --- | --- | --- | --- | --- |
| COc1ccc(O)c(C(C)(C)C)c1 [BHA, butylated hydroxyanisole, reference compound] | 12.9 | 7.6 mg/L | 1.12 | – | – | – | – | – | – | – | – | – | – | – | – | – | – | – | – |
| Cc1cc(C(C)(C)C)c(O)c(C(C)(C)C)c1 [BHT, Butylated hydroxytoluene, reference compound] | 196 | 5.0 mg/L | 0.81 | – | – | – | – | – | – | – | – | – | – | – | – | – | – | – | – |
| N.N.[Cl][Pt][Cl] [Cisplatin, reference compound] | – | – | – | 0.92 | 44.2 | 40.8 | 61.5 | 61.5 | 0.66 | 48.6 | 0.84 | – | – | – | – | – | – | – | – |
| O=c1cc(-c2ccc(O)cc2)oc2cc(O)cc(O)c12 [Compound 1, Apigenin] | 173 | 8.9 mg/L | 0.14 | – | – | – | – | – | – | – | – | did not reveal the noticeable activity | did not reveal the remarkable activity | Noticeable effect has not been detected | has not a noteworthy effect | – | – | – | – |
| O=C(/C=C/c1ccc(O)c(O)c1)O[C@H](Cc1ccc(O)c(O)c1)C(=O)O [Compound 5, rosmarinic acid] | 47.2 | 14.2 mg/L | 0.60 | 1.19 | – | – | 251 | – | 1.11 | 262 | 1.07 | – | good effect | – | – | 233 | 279 | 252 | 262 |
| O=C(OC(Cc1ccc(O)c(O)c1)C(=O)O)c1cc(-c2ccc(O)c(O)c2)c2cc(O)c(O)cc2c1 (centres unmarked) [Compound 6, globoidnan A] | 22.4 | 4.6 mg/L | 1.25 | – | 140 | – | 169 | – | – | 136 | – | – | did not reveal the remarkable activity | – | – | 140 | – | 169 | 136 |
| Cc1c(C)c2c(c(C)c1O)CCC(C)(C(=O)O)O2 (centres unmarked) [Trolox, reference compound] | – | 13.8 mg/L | 0.61 | – | – | – | – | – | – | – | – | – | – | – | – | – | – | – | – |
| caprolactam [Compound 4] | 329 | 61.5 mg/L | 0.08 | – | – | – | – | – | – | – | – | – | did not reveal the remarkable activity | Noticeable effect has not been detected | – | – | – | – | – |
| vitexin [Compound 3] | 31.4 | 3.6 mg/L and 3.7 mg/L | 0.27 | 1.31 | 35.6 | 46.7 | 41.6 | – | 1.12 | 32.5 | 1.43 | – | effective at high concentrations | – | – | – | – | – | – |
